Where a name gives a salt, the structure may show the parent alone.
Assay: Laboratory observation of polymorphic transformation of polymorph IV in pharmaceutical compositions
Type: physicochemical
Settings: especially in pharmaceutical compositions; more pronounced in humid environments

## COc1cc2c(cc1OC)CC(=O)N(CCCN(C)C[C@H]1Cc3cc(OC)c(OC)cc31)CC2 [ivabradine hydrochloride polymorph IV, 3-(3-{[((7S)-3,4-dimethoxybicyclo[4.2.0]octa-1,3,5-trien-7-yl)methyl]methylamino}propyl)-7,8-dimethoxy-1,3,4,5-tetrahydro-2H-3-benzazepin-2-one]
  Polymorphic stability over time: transforms over time into the more stable polymorph β
